Results from the NIST ThermoML archive (doi:10.1016/j.jct.2013.09.039).

Assay: xn = mol fraction of the nth substance listed
Conditions: Liquid, Vibrating tube method

Cc1ccc(C)cc1 [1,4-dimethylbenzene] + CCCCCCCC
mass density [kg/m3]
Conditions	100 kPa	5000 kPa	10000 kPa	20000 kPa	30000 kPa	40000 kPa
298.15 K, x2 = 0.0509	–	–	–	860.3	866.3	872.5
298.15 K, x2 = 0.0993	–	–	–	850.7	857.1	863.1
298.15 K, x2 = 0.1981	–	–	–	832.4	838.9	844.9
298.15 K, x2 = 0.2961	–	–	–	815	821.5	827.5
298.15 K, x2 = 0.3989	–	–	–	798	804.5	810.7
298.15 K, x2 = 0.4891	–	–	–	784	790.7	796.8
298.15 K, x2 = 0.5473	–	–	–	775.2	781.9	787.9
298.15 K, x2 = 0.6039	–	–	–	766.8	773.3	779.4
298.15 K, x2 = 0.8031	–	–	–	739.3	746.2	752.5
298.15 K, x2 = 0.8963	–	–	–	727.3	734.1	740.5
298.15 K, x2 = 0.946	–	–	–	720.7	727.5	733.8
308.15 K, x2 = 0.0509	837.4	841.4	845.2	852.1	858.9	865
308.15 K, x2 = 0.0993	828	832	835.8	842.9	849.6	855.8
308.15 K, x2 = 0.1981	809.3	813.5	817.5	824.5	831.4	837.7
308.15 K, x2 = 0.2961	791.6	796	800	807.3	814.2	820.5
308.15 K, x2 = 0.3989	774.4	778.8	783	790.3	797.2	803.7
308.15 K, x2 = 0.4891	760.3	764.7	768.9	776.4	783.4	789.7
308.15 K, x2 = 0.5473	752.4	755.9	760.1	767.7	774.6	781.2
308.15 K, x2 = 0.6039	743.9	747.2	751.6	759.3	766.3	772.7
308.15 K, x2 = 0.8031	716.1	719.9	724.2	732.1	739.2	745.9
308.15 K, x2 = 0.8963	704.2	708.1	712.4	720.1	727.4	734
308.15 K, x2 = 0.946	697.5	701.3	705.5	713.4	720.7	727.3
